One assay has as its system human T cells. Put plainly: ConA-induced activation and expansion of human T cells (high-throughput screen). Type of assay: cell-based. The note with it: for EC50: T-cell, 168 h, read-out: EC50-T cells.
Another assay deals with T cells. Put plainly: Cytokine rescue of T cell proliferation from MEK inhibition. The format is cell-based, human. The conditions noted are these: IL-2 20 U/ml, IL-7 2 ng/ml, IL-15 10 ng/ml, IL-21 100 ng/ml, IL-27 50 ng/ml, ALT-803 35.7 ng/ml. The text has this: Proliferation of CD8 T cells after 7 days is shown.
Proliferation of CD8 T cells is shown.
Reported are percentages of cells that proliferated with GDC0973 relative to vehicle treatment with the same cytokines after 7 days. Stains are not depicted.
T cell stimulation—For human T cell proliferation assays, peripheral blood lymphocytes were obtained by leukapheresis/elutriation and Miltenyi bead-purified and K562 cells expressing human CD32 were generated as previously described^41. K32 were γ-irradiated (100 Gy) and loaded with anti-CD3 (500 ng/ml, clone OKT3; eBioscience) plus anti-CD28 (500 ng/ml, clone 15E8; EMD Millipore) antibodies at room temperature for 10 minutes. PBMCs were labeled with CELLTRACE Violet stain (Invitrogen) according to the manufacturer's instructions and cocultured with loaded K32 cells at a 10:1 T cell to K32 ratio or activated with ConA (2 μg/ml, Sigma). Proliferation of stimulated T cells was determined 7 days later by FACS and Division Index was calculated using FlowJo™ software.

Assay [1] has as its system A2780 ovarian cancer cells. Put plainly: Molecular screening of compounds on A2780 cell proliferation (resazurin fluorescence). The format is cell-based, human. The note with it: for EC50: Homo sapiens, A2780 cells cultured 3 days (72 hrs), from normalized percent inhibition, N/A = ambiguous curve fits or EC50 greater than highest concentration tested (25 μM). How it is done:
Plots show the normalized percent inhibition (NPI) vs. concentration in log (μM).
(§1) Cell proliferation assays—Cells were plated in 96-well plates. Compounds were added the next morning, and cell proliferation was measured 48 hrs later with the […] 96 MTS assay (Promega) according to the manufacturer's instructions. Molecular screening of compounds on A2780 cells was performed by adding compounds the morning after plating in 384-well plates and measuring proliferation 72 hrs later with resazurin fluorescence. Normalized percent inhibition (NPI) was calculated with respect to fluorescence values obtained with DMSO negative control and doxorubicin (5 μM) positive control as NPI=100%*(DMSO−compound)/(DMSO−doxorubicin).
EC50 values were calculated from normalized percent inhibition data using non-linear curve fitting in PRISM software.

Another assay has as its system MCF-7 tumor cells. Nature of the assay: MCF-7 cell proliferation, MTS assay. The note with it: 2 days, compared with T cell division indices. Type of assay: cell-based, human. How it is done:
Representative results from one of two independent experiments.
as §1

Where [2] appears, read: human T cells activated with ConA for 7 days, from normalized percent inhibition, N/A = ambiguous curve fits or EC50 greater than highest concentration tested (25 μM).

Consider ten molecules from patent US10258625B2, “Method for treatment of metastatic and refractory cancers and tumors with an inducer that overcomes inhibition of T cell proliferation” (The Wistar Institute of Anatomy and Biology, priority 2015, dated 2019).

Read-outs that look alike come from different tables or passages of the source.

The term EC50 denotes the concentration that produces a half-maximal response. For the molecule `CN(C)CC[C@H](CSc1ccccc1)Nc1ccc(S(=O)(=O)NC(=O)c2ccc(N3CCN(Cc4ccccc4-c4ccc(Cl)cc4)CC3)cc2)cc1[N+](=O)[O-]` [ABT737], the EC50 with human T cells (setting [2]) stood at 0.061 µM.
As for “IL-21: cytokine of the panel of T cell survival and/or proliferation cytokines”, in the assay with T cells, the “rescue of T cell proliferation in the presence of the MEK inhibitors” value (“rescue … of the MEK inhibitors” below) is recorded as “no effect”.
For `Cn1c(=O)n(-c2ccc(C(C)(C)C#N)cc2)c2c3cc(-c4cnc5ccccc5c4)ccc3ncc21` [BEZ235], the EC50 came to 0.0024 µM with human T cells (setting [2]) and 0.021 µM in assay [1].
With `Cc1[nH]c2ccccc2c1CCNCc1ccc(/C=C/C(=O)NO)cc1` [LBH589], the EC50 in the assay on human T cells (setting [2]) was 0.025 µM.
Same read-out and setting: in the case of `CC(=O)c1c(C)c2cnc(Nc3ccc(N4CCNCC4)cn3)nc2n(C2CCCC2)c1=O` [PD0332991] it was 0.11 µM.
“IL-15: Recombinant human IL-15 (Novoprotein); proliferative cytokine”: the “rescue … of the MEK inhibitors” value in the assay on T cells was “able to rescue”.
With `C[C@]1(O)C[C@@H](c2nc(-c3ccc4ccc(-c5ccccc5)nc4c3)c3c(N)nccn32)C1` [OSI906], the “MCF-7 tumor cell proliferation” value in the assay with MCF-7 tumor cells was “reduction in tumor cell proliferation at concentrations that did not affect T cells”. Also, the “activity on T cells (in words)” value in the assay with human T cells (ConA-driven in vitro proliferation of human T cells) was “did not show any activity”. In addition, in assay [1], the “activity on A2780 cells (in words)” value is given as “did not show any activity”.
`N#CC(=C(/N)Sc1ccccc1N)/C(C#N)=C(\N)Sc1ccccc1N` [U0126]: the EC50 in the assay with human T cells (Homo sapiens) is 1.92 µM; in assay [1], 12.6 µM.

B1: IL-27: cytokine of the panel of T cell survival and/or proliferation cytokines (protein, UniProt Q8NEV9 29-243; Q14213 21-229, looked up)
Interleukin-27 subunit alpha: FPRPPGRPQLSLQELRREFTVSLHLARKLLSEVRGQAHRFAESHLPGVNLYLLPLGEQLPDVSLTFQAWRRLSDPERLCFISTTLQPFHALLGGLGTQGRWTNMERMQLWAMRLDLRDLQRHLRFQVLAAGFNLPEEEEEEEEEEEEERKGLLPGALGSALQGPAQVSWPQLLSTYRLLHSLELVLSRAVRELLLLSKAGHSVWPLGFPTLSPQP
Interleukin-27 subunit beta: RKGPPAALTLPRVQCRASRYPIAVDCSWTLPPAPNSTSPVSFIATYRLGMAARGHSWPCLQQTPTSTSCTITDVQLFSMAPYVLNVTAVHPWGSSSSFVPFITEHIIKPDPPEGVRLSPLAERQLQVQWEPPGSWPFPEIFSLKYWIRYKRQGAARFHRVGPIEATSFILRAVRPRARYYVQVAAQDLTDYGELSDWSLPATATMSLGK
As to B1, in the assay on T cells, the “rescue … of the MEK inhibitors” value is listed as “no effect”.

B2: IL-7: recombinant mouse IL-7 (Peprotech) (protein, UniProt P10168 26-154, looked up)
Interleukin-7: ECHIKDKEGKAYESVLMISIDELDKMTGTDSNCPNNEPNFFRKHVCDDTKEAAFLNRAARKLKQFLKMNISEEFNVHLLTVSQGTQTLVNCTSKEEKNVKEQKKNDACFLKRLLREIKTCWNKILKGSI
As for B2, the “rescue … of the MEK inhibitors” value in the assay on T cells is reported as “able to rescue”.
